Molecules are shown by their SMILES. Where two headings read alike, the source gives them in different places. Where only a bound is given, the exact number is not on record here.

The source of these data is PMC4976923, “Potent Allosteric Dengue Virus NS5 Polymerase Inhibitors: Mechanism of Action and Resistance Profiling” (PLoS Pathogens, 2016).

The target in one series is T1, DENV2 FL NS5 L511V (Dengue virus type 2, UniProt P14340, L3003V).
T1 construct: Recombinant DENV2 (A, C) and DENV4 (B, D) FL NS5 proteins bearing single or double amino acid changes; made in house
It is filed as binding. The conditions noted are these: 50 µM compound; for Protein melting temperature, Tm, DENV2 FL NS5 L511V: DMSO 35.5.

For another series, the target named is DENV4 RdRp (Dengue virus type 4, UniProt P09866). Briefly: Surface plasmon resonance binding assay (Biacore T200). For orientation: In SPR one partner is held on a chip, and binding of the other changes the refractive index at the surface.
Sequence of DENV4 RdRp (P09866 2753-3387): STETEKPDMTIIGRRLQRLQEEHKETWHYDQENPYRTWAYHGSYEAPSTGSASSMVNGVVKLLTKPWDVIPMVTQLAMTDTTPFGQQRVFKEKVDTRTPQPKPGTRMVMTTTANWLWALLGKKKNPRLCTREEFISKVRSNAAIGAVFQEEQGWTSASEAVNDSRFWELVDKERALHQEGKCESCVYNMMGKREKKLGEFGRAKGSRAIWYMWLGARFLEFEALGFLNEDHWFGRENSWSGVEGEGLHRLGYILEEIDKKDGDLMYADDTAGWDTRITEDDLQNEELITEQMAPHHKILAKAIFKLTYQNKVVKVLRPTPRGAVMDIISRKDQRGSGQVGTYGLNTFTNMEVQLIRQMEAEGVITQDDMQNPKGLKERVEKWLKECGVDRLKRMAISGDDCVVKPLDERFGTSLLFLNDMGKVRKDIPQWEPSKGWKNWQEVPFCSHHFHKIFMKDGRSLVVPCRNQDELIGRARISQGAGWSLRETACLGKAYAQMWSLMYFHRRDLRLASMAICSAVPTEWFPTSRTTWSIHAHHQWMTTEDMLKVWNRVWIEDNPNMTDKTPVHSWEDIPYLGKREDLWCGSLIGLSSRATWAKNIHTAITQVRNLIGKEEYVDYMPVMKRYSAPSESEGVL
In a further series the target is T2, DENV4 FL NS5 L512V (Dengue virus type 4, UniProt P09866, L2999V).
T2 construct: Recombinant DENV2 (A, C) and DENV4 (B, D) FL NS5 proteins bearing single or double amino acid changes; made in house
T2 sequence (P09866 2488-3387 L2999V): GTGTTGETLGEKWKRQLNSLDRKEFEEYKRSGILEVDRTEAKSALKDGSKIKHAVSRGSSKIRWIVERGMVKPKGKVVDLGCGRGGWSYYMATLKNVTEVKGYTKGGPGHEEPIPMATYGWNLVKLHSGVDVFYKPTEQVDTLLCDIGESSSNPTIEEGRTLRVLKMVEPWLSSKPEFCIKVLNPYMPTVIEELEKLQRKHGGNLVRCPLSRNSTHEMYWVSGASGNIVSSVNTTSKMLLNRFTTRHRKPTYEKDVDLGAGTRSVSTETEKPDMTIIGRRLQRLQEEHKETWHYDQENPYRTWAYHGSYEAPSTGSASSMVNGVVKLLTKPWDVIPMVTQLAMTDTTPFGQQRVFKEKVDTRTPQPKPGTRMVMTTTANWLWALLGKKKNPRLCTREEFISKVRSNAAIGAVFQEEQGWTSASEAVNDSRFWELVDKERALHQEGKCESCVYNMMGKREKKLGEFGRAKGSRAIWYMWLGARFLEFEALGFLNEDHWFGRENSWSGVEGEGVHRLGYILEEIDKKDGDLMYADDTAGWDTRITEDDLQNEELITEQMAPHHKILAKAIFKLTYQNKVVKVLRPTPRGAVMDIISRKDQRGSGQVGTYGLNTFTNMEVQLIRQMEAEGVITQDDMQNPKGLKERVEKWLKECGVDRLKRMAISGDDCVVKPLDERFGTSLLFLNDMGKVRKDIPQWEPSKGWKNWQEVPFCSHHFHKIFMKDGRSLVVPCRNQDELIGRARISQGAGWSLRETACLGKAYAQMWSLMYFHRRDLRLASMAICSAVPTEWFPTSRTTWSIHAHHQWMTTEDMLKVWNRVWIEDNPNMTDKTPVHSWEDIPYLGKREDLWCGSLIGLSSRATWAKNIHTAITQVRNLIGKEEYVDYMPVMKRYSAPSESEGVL
In kind it is binding. The conditions noted are these: 50 µM compound; for Protein melting temperature, Tm, DENV4 FL NS5 L512V: DMSO 36.5.

In a further series the target is T3, DENV4 FL NS5 Q802N (Dengue virus type 4, UniProt P09866, Q3290N).
T3 construct: made in house
T3 sequence (P09866 2488-3387 Q3290N): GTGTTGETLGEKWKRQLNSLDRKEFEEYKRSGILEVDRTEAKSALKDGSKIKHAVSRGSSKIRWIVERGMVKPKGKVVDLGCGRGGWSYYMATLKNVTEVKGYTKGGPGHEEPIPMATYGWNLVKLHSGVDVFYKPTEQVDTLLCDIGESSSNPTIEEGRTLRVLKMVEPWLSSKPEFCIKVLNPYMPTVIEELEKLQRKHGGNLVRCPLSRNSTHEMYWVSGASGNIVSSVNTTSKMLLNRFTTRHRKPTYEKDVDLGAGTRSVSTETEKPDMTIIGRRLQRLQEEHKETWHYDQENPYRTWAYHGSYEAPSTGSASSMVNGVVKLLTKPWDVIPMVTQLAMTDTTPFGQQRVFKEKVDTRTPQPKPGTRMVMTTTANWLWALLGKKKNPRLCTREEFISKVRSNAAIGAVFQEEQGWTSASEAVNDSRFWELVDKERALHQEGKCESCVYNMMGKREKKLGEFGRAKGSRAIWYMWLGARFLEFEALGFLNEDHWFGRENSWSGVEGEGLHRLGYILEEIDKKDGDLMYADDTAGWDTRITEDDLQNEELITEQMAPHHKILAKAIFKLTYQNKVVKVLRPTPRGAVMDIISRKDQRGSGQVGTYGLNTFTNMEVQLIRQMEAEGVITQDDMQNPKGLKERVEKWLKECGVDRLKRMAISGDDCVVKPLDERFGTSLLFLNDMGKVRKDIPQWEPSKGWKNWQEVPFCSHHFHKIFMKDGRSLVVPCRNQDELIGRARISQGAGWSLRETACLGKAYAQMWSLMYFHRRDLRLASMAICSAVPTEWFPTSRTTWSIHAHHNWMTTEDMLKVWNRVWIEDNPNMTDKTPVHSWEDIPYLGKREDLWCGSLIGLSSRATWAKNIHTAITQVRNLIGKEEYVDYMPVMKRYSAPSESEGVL
In kind it is binding. The conditions noted are these: 50 µM compound; for Protein melting temperature, Tm, DENV4 FL NS5 Q802N: DMSO 37.

Series [1] deals with DENV2-NGC replicon Wild Type. In words: Transient WT DENV2-NGC replicon in BHK-21 cells. The conditions noted are these: Dengue virus, DENV2, BHK-21, 48 h, read-out: EC50, DENV2-NGC Replicon, Wild Type.
Experimental: (§1) 4 Compound testing in cells transiently expressing DENV and WNV replicon. R enilla
(§2) 5 luciferas e sub-genomic replicon of DENV2 (strai n New Guinea C) or WN V (New York
(§3) 6 strain 3356) cloned into the pACYC plasmid, was in vitro transcribed using a T7 mMessage
(§4) 7 mMachine kit (Ambion, Austin, TX) after linearization with ClaI, as descri bed previousl y
(§5) 8 [5]. A549 cells were electroporated with 10 μg of replicon RNA using a GenePulser Xcell
(§6) 9 system (Bio-Rad, H ercul es, CA) with 3 pulses, at 450 V, 25 µF, at 5- 10 sec intervals.
(§7) 10 Transfected cells wer e seeded into a 96-w ell plate at 1.5 × 10^4 cells per well, followed b y
(§8) 11 treatment with the compound or the dimethyl sulfoxide (DMSO) control and incubation at
(§9) 12 37°C in 5 % CO2. At various time points post-transfection, cells were w ash ed once with
(§10) 13 phosphate-buffered saline (PBS) and l ysed in 20 μl 1× l ysis buffer (Promega, USA) and
(§11) 14 assa yed fo r luciferase si gnals with a Clarit y luminescence microplate reader (BioT ek, USA)
(§12) 15 using the renilla luciferase assa y s ystem (Promega, USA). CellTiter -Glo reagent was added to
(§13) 16 the l ysates to determine t he c ytotoxicit y effects of compounds.Duplicate w ells were seeded
Series [2] is described as follows: in vitro. It is filed as cell-based. To be noted: human; 4–5 days.
The test system of series [3] is Compound 29-resistant DENV2-NGC EGFP-replicon cells. Briefly: Compound-resistant DENV2-NGC EGFP-replicon cells. In kind it is cell-based. The conditions noted are these: Dengue virus, DENV2, 48 h, read-out: EC50, Compound 29-resistant DENV2-NGC EGFP-replicon cells.
Series [4] concerns WNV (New York strain 3356) replicon. In words: WNV replicon cell-based assay. The conditions noted are these: 0–50 μM, 2 days. On the technique in general: In antiviral work, replicon cells carry a viral genome segment that copies itself.
Experimental: as §1, §2, §3, §4, §5, §6, §7, §8, §9, §10, §11, §12, §13
WNV ( New York strain 3356) replicon cDNA was electropo rated in BHK -21 cells, […]
4 from replicon cells were determined b y measuring cellular renilla luciferase levels. […]
5 points were measured in duplicates.
A short description of series [5]: in vitro. The conditions noted are these: human; 4–5 days; read-out: CC50, HepG2. It is filed as cell-based.
Series [6] has as its system DENV2-NGC virus Wild Type. Briefly: WT DENV2-NGC virus in A549 cells, plaque assay. To be noted: Dengue virus, DENV2, A549, 48 h, read-out: EC50, DENV2-NGC Virus, Wild Type.
Experimental: 8 Plaque assay. Virus stock was produced b y harvesting the supernatant of DENV2 full -length
9 RNA- transf ected BHK -21 cells at 24, 48, 72, 96, and 120 hours post transfection. Virus titer
10 and morphology were determined by st andard plaque assa y. Briefl y, a seri es of 10 -fold
11 dilutions was prepared by first diluting 50 µl virus stock with 450 µl RPMI 1640 m edia
12 containing 2 % FBS to obtain 10-1 dilution and then further diluted until a final 10 -6 dilution
13 was achieved. Confluent BHK-21 cells (1 × 10^5 cells per well, plated 2 da ys in advance)
14 grown in 24-well plate was added with 200 µl of each dilution per well. Duplicates were
15 prepared for each time point and dilution factor. The infection was allowed to proceed at
16 30°C for 1 hour, followed by removing the m edia and adding 500 µl 0.8% methyl-cellulose
17 overla y (containing RPM I, 2 % FBS, 1 % P/S, 0.05 % NaHCO 3, 25 mM Na Hepes, and
18 0.5 % DMSO) into each well. The plates were incubated for 5 da ys at 37 °C in 5 % CO 2
19 before fixing in 3.7 % formaldehyde and staining with 1 % cr ystal violet. The viral titer was
20 calculated as plaque- forming unit (PFU) per ml.
The subject of a further series is DENV2-NGC replicon E802D. It is filed as cell-based. To be noted: electroporated BHK-21; 2 days.
The test system of a further series is HCV replicon. In words: HCV replicon firefly luciferase assay. In kind it is cell-based, hepatitis C virus (HCV) genotype 1b. To be noted: Hepatitis C virus; HuH-7; 48 hr; tested up to 25 μM. As to the method: A549, BHK-21 and Huh7 cells bearing stable DENV2 sub-genomic replicon or transiently electroporated DENV2-NGC replicon or infectious virus cDNAs were seeded into 384-well microplate (3,000 cells per well). After over-night incubation at 37°C with 5% CO2, the cells were treated with 2-fold serially diluted compounds, starting from 20 or 50 μM. At 48 hr of post-incubation, renilla luciferase activities were measured with the ViviRen live-cell substrate (Promega, USA) according to the manufacturer’s protocol. CellTiter-Glo reagent (Promega, USA) was then added to determine cytotoxic effects of compounds. For the HCV replicon assay, Huh-7.5 cells harboring the HCV replicon were seeded into a 96-well microplate (20,000 cells per well). At 48 hr after compound treatment, cells were assayed for firefly luciferase activity by using a Bright-Glo luciferase assay (Promega, USA). NITD-008, a nucleoside inhibitor of DENV and HCV was added as a control.
1 containing 2 % FBS, 1mM L-glutamine and 1 % penicillin-streptom ycin and incubated over-
At 24 h post-seeding, cells were inf ected with DENV1-4 at […]
8 DENV envelope protein ) and DRAQ5 (for nucl ear DNA) . Quantifications of DENV
9 envelope protein were determined using the Opera high content imaging s ystem and anal ysis […]
17 µM concentrations. At 48 hr of post-incubation, r enilla luciferas e activities were measured […]

Series [7] deals with DENV2-NGC replicon L512V/E802D. In kind it is cell-based. The conditions noted are these: electroporated BHK-21; 2 days.
In another series the target is T4, DENV2 FL NS5 E802D (Dengue virus type 2, UniProt P14340, E3293D).
T4 construct: Recombinant DENV2 (A, C) and DENV4 (B, D) FL NS5 proteins bearing single or double amino acid changes; made in house
It is filed as binding. To be noted: 50 µM compound; for Protein melting temperature, Tm, DENV2 FL NS5 E802D: DMSO 36.

Experimental for DENV4 RdRp: Biotinylated DENV3 and DENV4 RdRp were captured on flow cells 2 and 4 respectively in 50 mM Tris/HCl, pH 7.5, 200 mM NaCl, 2 mM DTT, 0.05% Tween 20, and 3% DMSO at 4°C. Flow cell 1 and 3 were left blank to serve as a reference [37]. […] Compounds were injected at a flow rate of 30 μL/min, with 45 s contact time and 600 s dissociation, starting from the DMSO control and finishing with the highest concentration.

The EC50 is the concentration at which the effect is half-maximal. What is called CC50 is the concentration at which the toxic effect on the cells reaches its halfway point. As for `COc1cccc(S(=O)(=O)NC(=O)c2cc(-c3ccc(C#CCO)s3)c(OC)cc2OC)c1` [Compound 27], the “Tm change compared to DMSO control, DENV2 FL NS5 L511V” value at DENV2 FL NS5 L511V came to 0 °C. Further, the “Protein melting temperature, Tm, DENV2 FL NS5 L511V” value at DENV2 FL NS5 L511V is 35.5 °C. The “SPR % Rmax” value on DENV4 RdRp turned out to be 66.8%. Further, the “Tm change compared to DMSO control, DENV4 FL NS5 L512V” value on DENV4 FL NS5 L512V worked out at 0 °C. For the same compound, at DENV4 FL NS5 L512V, the “Protein melting temperature, Tm, DENV4 FL NS5 L512V” value amounted to 36.5 °C. Further, the “Tm change compared to DMSO control, DENV4 FL NS5 Q802N” value at DENV4 FL NS5 Q802N turned out to be 0.5 °C. In addition, at DENV4 FL NS5 Q802N, the “Protein melting temperature, Tm, DENV4 FL NS5 Q802N” value was 37.5 °C. Moreover, the EC50 in series [1] was 7.83 µM; in series [3], 41.7 µM; in [6] it was 0.87 µM; in the series on DENV2-NGC replicon E802D it was 12.8 µM; in the series on HCV replicon, over 25 µM; in [7] it was 28.4 µM. For the same compound, the CC50 in “in vitro [2]” and in “in vitro [5]” was over 50 µM each time. Besides, the “activity in WNV replicon cell-based assay” value in series [4] is “inactive”. The “Tm change compared to DMSO control, DENV2 FL NS5 E802D” value on DENV2 FL NS5 E802D was determined as 0 °C. Also, at DENV2 FL NS5 E802D, the “Protein melting temperature, Tm, DENV2 FL NS5 E802D” value was determined as 36 °C.
Consider `COc1cc(OC)c(-c2ccc(C#CCO)s2)cc1C(=O)NS(=O)(=O)c1cccc2cccnc12` [Compound 29], for which the “Tm change compared to DMSO control, DENV2 FL NS5 L511V” value on DENV2 FL NS5 L511V was determined as 1.0 °C. The “Protein melting temperature, Tm, DENV2 FL NS5 L511V” value on DENV2 FL NS5 L511V worked out at 36.5 °C. On DENV4 RdRp, the “SPR % Rmax” value worked out at 20.9%. Besides, the “Tm change compared to DMSO control, DENV4 FL NS5 L512V” value on DENV4 FL NS5 L512V was found to be 1.5 °C. Besides, the “Protein melting temperature, Tm, DENV4 FL NS5 L512V” value on DENV4 FL NS5 L512V amounted to 38 °C. Further, on DENV4 FL NS5 Q802N, the “Tm change compared to DMSO control, DENV4 FL NS5 Q802N” value turned out to be 1.5 °C. In addition, the “Protein melting temperature, Tm, DENV4 FL NS5 Q802N” value at DENV4 FL NS5 Q802N stood at 38.5 °C. For the same compound, the EC50 in [1] is 6.7 µM; in series [3] it was 34 µM; in [6], 1.11 µM; with DENV2-NGC replicon E802D, 21.4 µM; in the series with HCV replicon it was over 25 µM; in series [7], 38.8 µM. Also, the CC50 in the series “in vitro [2]” and in “in vitro [5]” was over 50 µM each time. The “activity in WNV replicon cell-based assay” value in [4] is “inactive”. In addition, at DENV2 FL NS5 E802D, the “Tm change compared to DMSO control, DENV2 FL NS5 E802D” value is 2.0 °C. The “Protein melting temperature, Tm, DENV2 FL NS5 E802D” value at DENV2 FL NS5 E802D worked out at 38 °C.
